Test results as given in patent publication US10590113B2, “6-hydroxy-4-oxo-1,4-dihydropyrimidine-5-carboxamides as APJ agonists” (priority 2016, dated 2020).

biological target: T1, human APJ receptor (Homo sapiens, UniProt P35414); assay: Intracellular cAMP Accumulation Assay (APJ hcAMP, HTRF); format: cell-based; details: human APJ, intracellular cAMP accumulation; read-out: hAPJ cAMP EC50 Potency range
T1 construct: expressed in transfected cells; host or cells: HEK293
T1 sequence (P35414 1-380): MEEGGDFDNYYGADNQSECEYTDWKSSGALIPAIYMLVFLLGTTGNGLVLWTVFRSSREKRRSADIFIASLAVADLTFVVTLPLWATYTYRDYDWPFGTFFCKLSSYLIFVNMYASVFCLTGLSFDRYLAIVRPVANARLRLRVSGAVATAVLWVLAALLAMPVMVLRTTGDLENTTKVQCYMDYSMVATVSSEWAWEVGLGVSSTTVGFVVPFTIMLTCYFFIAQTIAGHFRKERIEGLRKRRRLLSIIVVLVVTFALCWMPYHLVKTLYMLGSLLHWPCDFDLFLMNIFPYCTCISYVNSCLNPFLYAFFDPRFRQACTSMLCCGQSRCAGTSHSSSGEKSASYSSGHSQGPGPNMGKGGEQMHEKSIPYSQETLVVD
Outline: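 Stably transfected HEK293 cells (5,000/well) incubated 30 min at room temperature with serially diluted compound, […] and 2 μM forskolin. cAMP measured by HTRF after 60 min with detection reagents, quantified against a cAMP standard curve; EC50 from variable-slope sigmoidal fit of inhibition of forskolin-stimulated cAMP.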

EC50, 0.01 to 10 nM:
COc1cccc(OC)c1-n1c(CCC2CC2)nc(=O)c(C(=O)N2CCC(c3ccc(F)cn3)C2)c1O (single isomer, unassigned) [Example 175, 2-(2-cyclopropylethyl)-1-(2,6-dimethoxyphenyl)-5-[3-(5-fluoropyridin-2-yl)pyrrolidine-1-carbonyl]-6-hydroxy-1,4-dihydropyrimid in-4-one]
COc1cccc(OC)c1-n1c(CCC2CC2)nc(=O)c(C(=O)N2CCC(c3ncc(Cl)cc3F)C2)c1O (single isomer, unassigned) [Example 176, 5-[3-(5-chloro-3-fluoropyridin-2-yl)pyrrolidine-1-carbonyl]-2-(2-cyclopropylethyl)-1-(2,6-dimethoxyphenyl)-6-hydroxy-1,4-dihydropyrimidin-4-one]
COc1cccc(OC)c1-n1c(CCC2CC2)nc(=O)c(C(=O)N2CCC(c3ccc(F)cn3)C2)c1O (single isomer, unassigned) [Example 177, 2-(2-cyclopropylethyl)-1-(2,6-dimethoxyphenyl)-5-[3-(5-fluoropyridin-2-yl)pyrrolidine-1-carbonyl]-6-hydroxy-1,4-dihydropyrimidin-4-one]
COc1cccc(OC)c1-n1c(CCC2CC2)nc(=O)c(C(=O)N2CCC(c3ncccc3F)C2)c1O (single isomer, unassigned) [Example 178, 2-(2-cyclopropylethyl)-1-(2,6-dimethoxyphenyl)-5-[3-(3-fluoropyridin-2-yl)pyrrolidine-1-carbonyl]-6-hydroxy-1,4-dihydropyrimidin-4-one]
COc1cccc(OC)c1-n1c(CCC2CC2)nc(=O)c(C(=O)N2CCC(c3ncccc3F)C2)c1O (single isomer, unassigned) [Example 179, 2-(2-cyclopropylethyl)-1-(2,6-dimethoxyphenyl)-5-[3-(3-fluoropyridin-2-yl)pyrrolidine-1-carbonyl]-6-hydroxy-1,4-dihydropyrimidin-4-one]
COc1cccc(OC)c1-n1c(CCC2CC2)nc(=O)c(C(=O)N2CCC(c3ncc(Cl)cc3F)C2)c1O (single isomer, unassigned) [Example 180, 5-[3-(5-chloro-3-fluoropyridin-2-yl)pyrrolidine-1-carbonyl]-2-(2-cyclopropylethyl)-1-(2,6-dimethoxyphenyl)-6-hydroxy-1,4-dihydropyrimidin-4-one]
CC[C@@H](c1cc(F)cc(F)c1)n1c(-c2ccn(CC)n2)nc(=O)c(C(=O)N2CCC(c3ncccc3F)C2)c1O (single isomer, unassigned) [Example 181]
CC[C@@H](c1cc(F)cc(F)c1)n1c(-c2cnn(C)c2)nc(=O)c(C(=O)N2CCC(c3ncc(F)cc3F)C2)c1O (single isomer, unassigned) [Example 182]
CC[C@@H](c1cc(F)cc(F)c1)n1c(-c2cnn(C)c2)nc(=O)c(C(=O)N2CCC(c3ccc(Cl)cn3)C2)c1O (single isomer, unassigned) [Example 183]
CC[C@@H](c1cc(F)cc(F)c1)n1c(-c2ccn(C)n2)nc(=O)c(C(=O)N2CCC(c3ncc(F)cc3F)C2)c1O (single isomer, unassigned) [Example 184]
CC[C@@H](c1cc(F)cc(F)c1)n1c(-c2ccn(C)n2)nc(=O)c(C(=O)N2CCC(c3ccc(F)cn3)C2)c1O (single isomer, unassigned) [Example 185]
CC[C@@H](c1cc(F)cc(F)c1)n1c(-c2ccn(CC)n2)nc(=O)c(C(=O)N2CCC(c3ncccc3F)C2)c1O (single isomer, unassigned) [Example 186]
CC[C@@H](c1cc(F)cc(F)c1)n1c(-c2cnn(C)c2)nc(=O)c(C(=O)N2CCC(c3ccc(Cl)cn3)C2)c1O (single isomer, unassigned) [Example 187]
CC[C@@H](c1cc(F)cc(F)c1)n1c(-c2cnn(C)c2)nc(=O)c(C(=O)N2CCC(c3ncc(F)cc3F)C2)c1O (single isomer, unassigned) [Example 188]
CC[C@@H](c1cc(F)cc(F)c1)n1c(-c2ccn(C)n2)nc(=O)c(C(=O)N2CCC(c3ncccc3F)C2)c1O (single isomer, unassigned) [Example 189]
CC[C@@H](c1cc(F)cc(F)c1)n1c(-c2ccn(C)n2)nc(=O)c(C(=O)N2CCC(c3ccc(Cl)cn3)C2)c1O (single isomer, unassigned) [Example 190]
CC[C@@H](c1cc(F)cc(F)c1)n1c(-c2cnn(C)c2)nc(=O)c(C(=O)N2CCC(c3ccc(F)cn3)C2)c1O (single isomer, unassigned) [Example 191]
CC[C@@H](c1cc(F)cc(F)c1)n1c(-c2ccn(CC)n2)nc(=O)c(C(=O)N2CCC(c3ncc(F)cc3F)C2)c1O (single isomer, unassigned) [Example 192]
CC[C@@H](c1cc(F)cc(F)c1)n1c(-c2ccn(C)n2)nc(=O)c(C(=O)N2CCC(c3ccccc3F)C2)c1O (single isomer, unassigned) [Example 193]
CC[C@@H](c1cc(F)cc(F)c1)n1c(-c2ccn(C)n2)nc(=O)c(C(=O)N2CCC(c3ccc(F)cc3)C2)c1O (single isomer, unassigned) [Example 194]
CC[C@@H](c1cc(F)cc(F)c1)n1c(-c2ccn(C)n2)nc(=O)c(C(=O)N2CCC(c3ccccc3OC)C2)c1O (single isomer, unassigned) [Example 195]
CC[C@@H](c1cc(F)cc(F)c1)n1c(-c2cnn(C)c2)nc(=O)c(C(=O)N2CCC(c3ccccc3F)C2)c1O (single isomer, unassigned) [Example 196]
CC[C@@H](c1cc(F)cc(F)c1)n1c(-c2cnn(C)c2)nc(=O)c(C(=O)N2CCC(c3ccc(F)cc3)C2)c1O (single isomer, unassigned) [Example 197]
CC[C@@H](c1cc(F)cc(F)c1)n1c(-c2cnn(C)c2)nc(=O)c(C(=O)N2CCC(c3ccccc3OC)C2)c1O (single isomer, unassigned) [Example 198]
CC[C@@H](c1cc(F)cc(F)c1)n1c(-c2ccn(C)n2)nc(=O)c(C(=O)N2CCC(c3ccc(F)cn3)C2)c1O (single isomer, unassigned) [Example 199]
CC[C@@H](c1cc(F)cc(F)c1)n1c(-c2ccn(C)n2)nc(=O)c(C(=O)N2CCC(c3cc(F)ccn3)C2)c1O (single isomer, unassigned) [Example 200]
CC[C@@H](c1cc(F)cc(F)c1)n1c(-c2ccn(C)n2)nc(=O)c(C(=O)N2CCC(c3ncccc3F)C2)c1O (single isomer, unassigned) [Example 201]
CC[C@@H](c1cc(F)cc(F)c1)n1c(-c2ccn(CC)n2)nc(=O)c(C(=O)N2CCC(c3cc(F)ccn3)C2)c1O (single isomer, unassigned) [Example 202]
CC[C@@H](c1cc(F)cc(F)c1)n1c(-c2cnn(C)c2)nc(=O)c(C(=O)N2CCC(c3cc(F)ccn3)C2)c1O (single isomer, unassigned) [Example 203]
